According to US6603046B1, “Bis-aromatic a,β-unsaturated ketones” (Lica Pharmaceuticals A/S, priority 1992, dated 2003):
Several values for one entry are separate records, joined by “and”; a condition that tells them apart may be missing. Equal values may be shown once.

Tested on: P. yoelii strain YM
Test: P. yoelii strain YM infection in mice, parasitemia and mortality (Example 16)
Format: in vivo, BALB/c mice
Settings: for % parasitemia, Mean: orally 100 mg/kg/dose 3 and 24 h after infection
[1] = D + 11, 10 mg per kg twice daily days +1 to +4
[2] = D + 12, 10 mg per kg twice daily days +1 to +4
[3] = D + 12, i.p. 10 mg/kg twice daily D-1, D0
[4] = D + 14, i.p. 10 mg/kg twice daily D-1, D0
[5] = D + 15, 10 mg per kg twice daily days +1 to +4
[6] = D + 16, 10 mg per kg twice daily days +1 to +4
[7] = D + 16, i.p. 10 mg/kg four times daily D + 4 to D + 7
[8] = D + 16, i.p. 10 mg/kg twice daily D-1, D0
[9] = D + 17, 10 mg per kg twice daily days +1 to +4
[10] = D + 18, i.p. 10 mg/kg four times daily D + 4 to D + 7
[11] = D + 18, i.p. 10 mg/kg twice daily D-1, D0
[12] = D + 20, i.p. 10 mg/kg four times daily D + 4 to D + 7
[13] = D + 20, i.p. 10 mg/kg twice daily D-1, D0

C=CC(C)(C)c1cc(/C=C/C(=O)c2ccc(O)cc2)c(OC)cc1O [Licochalcone A, licochalcone A]
% parasitemia (mean ± SEM) (D + 10, 15 mg/kg/day twice daily, 3 h after infection, D + 1 to D + 5): 0%
Parasitemia, single mice (D + 10, 20 mg/kg/day in 2 injections, days +1 to +6, 20 mg/kg/day): 5.0% and 8.0%
Parasitemia, single mice (D + 10, 40 mg/kg/day in 2 injections, days +1 to +6, 40 mg/kg/day): 32.0% and 38.0%
mortality (no. of dead mice/total no. of tested mice) (D + 10, i.p. 5 mg/kg/day twice daily to D + 3): (2/5)
% parasitemia (mean ± SEM) (D + 10, i.p. 5 mg/kg/day twice daily, 3 h after infection and D + 1 to D + 3): 64 ± 5.0%
% parasitemia (mean ± SEM) (D + 10, i.p. 10 mg/kg four times daily D + 4 to D + 7): 27.6 ± 12.1%
% parasitemia (mean ± SEM) (D + 10, i.p. 10 mg/kg twice daily D-1, D0): 47.4 ± 27.7%
mortality (no. of dead mice/total no. of tested mice) (D + 10, i.p. 10 mg/kg/day twice daily to D + 3): (1/5)
% parasitemia (mean ± SEM) (D + 10, i.p. 10 mg/kg/day twice daily, 3 h after infection and D + 1 to D + 3): 48 ± 5.4%
mortality (no. of dead mice/total no. of tested mice) (D + 10, i.p. 15 mg/kg/day twice daily to D + 3): (1/5)
% parasitemia (mean ± SEM) (D + 10, i.p. 15 mg/kg/day twice daily, 3 h after infection and D + 1 to D + 3): 22 ± 11.6%
% parasitemia, Mean (D + 10): 43%
Parasitemia, mean [1]: 37.0%
Parasitemia, single mice [1]: 33.0% and 41.0%
Parasitemia, single mice (D + 11, 40 mg/kg/day in 2 injections, days +1 to +6, 40 mg/kg/day): 51.0%
Parasitemia, mean [2]: 74.0%
Parasitemia, single mice [2]: 80.0% and 68.0%
% parasitemia (mean ± SEM) (D + 12, 10 mg/kg/day twice daily, 3 h after infection, D + 1 to D + 5): 14.4 ± 8.9%
% parasitemia (mean ± SEM) (D + 12, 15 mg/kg/day twice daily, 3 h after infection, D + 1 to D + 5): 0%
mortality (no. of dead mice/total no. of tested mice) (D + 12, i.p. 5 mg/kg/day twice daily to D + 3): (5/5)
% parasitemia (mean ± SEM) (D + 12, i.p. 10 mg/kg four times daily D + 4 to D + 7): 50.4 ± 15.6%
% parasitemia (mean ± SEM) [3]: 55.7 ± 48.4%
mortality (no. of dead mice/total no. of tested mice) [3]: 2/5
mortality (no. of dead mice/total no. of tested mice) (D + 12, i.p. 10 mg/kg/day twice daily to D + 3): 4/5
% parasitemia (mean ± SEM) (D + 12, i.p. 10 mg/kg/day twice daily, 3 h after infection and D + 1 to D + 3): 82%
mortality (no. of dead mice/total no. of tested mice) (D + 12, i.p. 15 mg/kg/day twice daily to D + 3): (1/5)
% parasitemia (mean ± SEM) (D + 12, i.p. 15 mg/kg/day twice daily, 3 h after infection and D + 1 to D + 3): 4.8 ± 3.2%
Parasitemia, mean (D + 13, 10 mg per kg twice daily days +1 to +4): 50.0%
% parasitemia, Mean (D + 13): 6.5%
Parasitemia, mean (D + 14, 10 mg per kg twice daily days +1 to +4): 35.0%
mortality (no. of dead mice/total no. of tested mice) (D + 14, 10 mg/kg/day twice daily to D + 5): 1/5
% parasitemia (mean ± SEM) (D + 14, 10 mg/kg/day twice daily, 3 h after infection, D + 1 to D + 5): 17 ± 17%
% parasitemia (mean ± SEM) (D + 14, 15 mg/kg/day twice daily, 3 h after infection, D + 1 to D + 5): 0%
% parasitemia (mean ± SEM) (D + 14, i.p. 10 mg/kg four times daily D + 4 to D + 7): 58.6 ± 9.0%
% parasitemia (mean ± SEM) [4]: 0%
mortality (no. of dead mice/total no. of tested mice) [4]: 4/5
mortality (no. of dead mice/total no. of tested mice) (D + 14, i.p. 10 mg/kg/day twice daily to D + 3): (5/5)
mortality (no. of dead mice/total no. of tested mice) (D + 14, i.p. 15 mg/kg/day twice daily to D + 3): 1/5
% parasitemia (mean ± SEM) (D + 14, i.p. 15 mg/kg/day twice daily, 3 h after infection and D + 1 to D + 3): 0%
Parasitemia, mean [5]: 2.0%
Parasitemia, single mice [5]: 2.0%
Parasitemia, mean [6]: 0.3%
Parasitemia, single mice [6]: 0.5% and 0.1%
mortality (no. of dead mice/total no. of tested mice) (D + 16, 10 mg/kg/day twice daily to D + 5): 2/5
% parasitemia (mean ± SEM) (D + 16, 10 mg/kg/day twice daily, 3 h after infection, D + 1 to D + 5): 0%
% parasitemia (mean ± SEM) (D + 16, 15 mg/kg/day twice daily, 3 h after infection, D + 1 to D + 5): 0%
% parasitemia (mean ± SEM) [7]: 75.8 ± 6.6%
mortality (no. of dead mice/total no. of tested mice) [7]: 1/5
% parasitemia (mean ± SEM) [8]: 0%
mortality (no. of dead mice/total no. of tested mice) [8]: 4/5
% parasitemia, Mean (D + 16): 0%
Parasitemia, mean [9]: 0.0%
Parasitemia, single mice [9]: 0.0%
mortality (no. of dead mice/total no. of tested mice) (D + 18, 10 mg/kg/day twice daily to D + 5): 2/5
% parasitemia (mean ± SEM) (D + 18, 10 mg/kg/day twice daily, 3 h after infection, D + 1 to D + 5): 0%
% parasitemia (mean ± SEM) (D + 18, 15 mg/kg/day twice daily, 3 h after infection, D + 1 to D + 5): 0%
% parasitemia (mean ± SEM) [10]: 53 ± 25%
mortality (no. of dead mice/total no. of tested mice) [10]: 2/5
% parasitemia (mean ± SEM) [11]: 0%
mortality (no. of dead mice/total no. of tested mice) [11]: 4/5
% parasitemia (mean ± SEM) [12]: 19 ± 9.7%
mortality (no. of dead mice/total no. of tested mice) [12]: 3/5
% parasitemia (mean ± SEM) [13]: 0%
mortality (no. of dead mice/total no. of tested mice) [13]: 4/5
